Data published in patent publication US20250230193A1, “CYCLIC COMPOUND HAVING SELECTIVE KRAS INHIBITORY EFFECT ON HRAS AND NRAS” (CHUGAI SEIYAKU KABUSHIKI KAISHA, priority 2022, published 2025).
Where a SMILES comes first, the peptide text is derived from it. Bridges are numbered along the chain shown (N, C = ends). [ ]: non-standard residue; d: D form. The star is where a group is joined. hPhe(3-Cl-4-CF3) = N[C@@H](CCc1ccc(C(F)(F)F)c(Cl)c1)C(=O)O; NPrPhe(4-CF3) = CCCN[C@@H](Cc1ccc(C(F)(F)F)cc1)C(=O)O; NMeGly(cPent) = CN[C@H](C(=O)O)C1CCCC1; Pro(4,4-F2) = O=C(O)[C@@H]1CC(F)(F)CN1; NMeD = CN[C@@H](CC(=O)O)C(=O)O; NMeL = CN[C@@H](CC(C)C)C(=O)O; Morpholide = C1CN(*)CCO1; Ac4c = NC1(C(=O)O)CCC1; NEtG = CCNCC(=O)O; Sar = CNCC(=O)O

How the values were obtained:
[1] = molecular target: GDP-bound NRAS wild-type protein (Homo sapiens, UniProt P01111); experiment: Binding to NRAS by surface plasmon resonance (SPR), Single Cycle Kinetics; conditions: for NRAS/KRAS (ratio of KD value with respect to NRAS to KD value with respect to KRAS) / NRAS/KRAS (ratio of KD value for NRAS to KD value for KRAS): GDP-bound NRAS wild-type vs GDP-bound KRAS wild-type
[2] = molecular target: GDP-bound HRAS wild-type protein (Homo sapiens, UniProt P01112); experiment: Binding to HRAS by surface plasmon resonance (SPR), Single Cycle Kinetics; conditions: for HRAS/KRAS (ratio of KD value with respect to HRAS to KD value with respect to KRAS) / HRAS/KRAS (ratio of KD value for HRAS to KD value for KRAS): GDP-bound HRAS wild-type vs GDP-bound KRAS wild-type
GDP-bound HRAS wild-type protein, sequence (P01112 whole entry): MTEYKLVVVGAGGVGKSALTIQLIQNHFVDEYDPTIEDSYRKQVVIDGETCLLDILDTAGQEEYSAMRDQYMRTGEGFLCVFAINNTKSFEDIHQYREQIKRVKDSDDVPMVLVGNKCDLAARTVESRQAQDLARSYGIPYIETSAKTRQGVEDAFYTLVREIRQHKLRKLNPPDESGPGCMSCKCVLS

GDP-bound NRAS wild-type protein, sequence (P01111 whole entry): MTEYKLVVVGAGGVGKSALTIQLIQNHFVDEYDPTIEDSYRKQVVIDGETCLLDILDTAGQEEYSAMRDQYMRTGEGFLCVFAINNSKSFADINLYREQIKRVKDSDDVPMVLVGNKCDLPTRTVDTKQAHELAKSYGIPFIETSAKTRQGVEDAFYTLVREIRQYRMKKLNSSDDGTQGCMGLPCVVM

Structure (SMILES): CCO[C@@H]1C[C@H]2C(=O)NC3(CCC3)C(=O)N(C)[C@@H](C3CCCC3)C(=O)N(C)[C@H](C(=O)N(C)CC)CC(=O)N(C)[C@@H](CC(C)C)C(=O)N[C@@H]([C@@H](C)CC)C(=O)N(C)CC(=O)N(C)[C@H]3C/C=C\CCN(C3=O)[C@@H](Cc3ccc(C(F)(F)F)cc3)C(=O)N(C)CC(=O)N[C@@H](CCc3ccc(Cl)c(Cl)c3)C(=O)N2C1 [PP2845]
- NRAS/KRAS (ratio of KD value with respect to GDP-bound NRAS wild-type protein to KD value with respect to KRAS) ([1]; KD ratio NRAS/KRAS, class symbols): AA (a compound having 20 or more is denoted as AA)
- HRAS/KRAS (ratio of KD value with respect to GDP-bound HRAS wild-type protein to KD value with respect to KRAS) ([2]; KD ratio HRAS/KRAS, class symbols): A (a compound having 10 or more and less than 20 is denoted as A)

Structure (SMILES): CCO[C@@H]1C[C@H]2C(=O)NC3(CC(C)(C)C3)C(=O)N(C)[C@@H](C(CC)CC)C(=O)N(C)[C@H](C(=O)N(C)C)CC(=O)N(C)[C@@H](CC(C)C)C(=O)N[C@@H]([C@@H](C)CC)C(=O)N(C)CC(=O)N(C)[C@H]3C/C=C\CCN(C3=O)[C@@H](Cc3ccc(C)cc3)C(=O)N(C)CC(=O)N[C@@H](CCc3ccc(C(F)(F)F)c(Cl)c3)C(=O)N2C1 [PP2148]
- NRAS/KRAS (ratio of KD value with respect to NRAS to KD value with respect to KRAS) ([1]; SPR): A (a compound having 10 or more and less than 20 is denoted as A)
- HRAS/KRAS (ratio of KD value with respect to HRAS to KD value with respect to KRAS) ([2]; SPR): A (a compound having 10 or more and less than 20 is denoted as A)

Structure (SMILES): CC[C@H](C)[C@@H]1NC(=O)[C@@H]2CCC/C=C/c3ccc(cc3)C[C@@H](C(=O)N(C)CC(=O)N[C@@H](CCc3ccc(Cl)c(Cl)c3)C(=O)N3C[C@H](OC4CCC4)C[C@H]3C(=O)NC3(CC(C)(C)C3)C(=O)N(C)[C@@H](C3CCCC3)C(=O)N(C)[C@H](C(=O)N(C)CC)CC(=O)N2C)N2CC/C=C\C[C@@H](C2=O)N(C)C(=O)CN(C)C1=O [PP3058]
- NRAS/KRAS (ratio of KD value with respect to GDP-bound NRAS wild-type protein to KD value with respect to KRAS) ([1]; KD ratio NRAS/KRAS, SPR, GDP-bound wild-type proteins): A (a compound having 10 or more and less than 20 is denoted as A)
- HRAS/KRAS (ratio of KD value with respect to GDP-bound HRAS wild-type protein to KD value with respect to KRAS) ([2]; KD ratio HRAS/KRAS, SPR, GDP-bound wild-type proteins): A (a compound having 10 or more and less than 20 is denoted as A)

Structure (SMILES): CC[C@H](C)[C@@H]1NC(=O)[C@H](CC(C)C)N(C)C(=O)C[C@@H](C(=O)N(C)C)N(C)C(=O)[C@H](C2CCCC2)N(C)C(=O)C2(CC(C)(C)C2)NC(=O)[C@@H]2C[C@H](C)CN2C(=O)[C@H](CCc2cc(F)c(C(F)(F)F)c(F)c2)NC(=O)CN(C)C(=O)[C@H](Cc2ccc(C(F)(F)F)cc2)N2CC/C=C\C[C@@H](C2=O)N(C)C(=O)CN(C)C1=O [PP1662]
- NRAS/KRAS (ratio of KD value for NRAS to KD value for KRAS) ([1]; SPR): A (a compound having 10 or more and less than 20 is denoted as A)
- HRAS/KRAS (ratio of KD value for HRAS to KD value for KRAS) ([2]; SPR): B (a compound having 3 or more and less than 10 is denoted as B)

Structure (SMILES): CCCN1C(=O)CN(C)C(=O)CN(C)C(=O)[C@H]([C@@H](C)CC)NC(=O)[C@H](CC(C)C)N(C)C(=O)C[C@@H](C(=O)N2CCOCC2)N(C)C(=O)[C@H](C2CCCC2)N(C)C(=O)C2(CCC2)NC(=O)[C@@H]2CC(F)(F)CN2C(=O)[C@H](CCc2ccc(C(F)(F)F)c(Cl)c2)NC(=O)CN(C)C(=O)[C@@H]1Cc1ccc(C(F)(F)F)cc1 [PP0207] ([NMeL]I[Sar][Sar][NPrPhe(4-CF3)][Sar][hPhe(3-Cl-4-CF3)][Pro(4,4-F2)][Ac4c][NMeGly(cPent)][NMeD]-Morpholide; lactam N-11)
- NRAS/KRAS (ratio of KD for GDP-bound NRAS wild-type to KD for KRAS) ([1]; KD ratio NRAS/KRAS, SPR): B (a compound having 3 or more and less than 10 is denoted as B)
- HRAS/KRAS (ratio of KD for GDP-bound HRAS wild-type to KD for KRAS) ([2]; KD ratio HRAS/KRAS, SPR): C (A compound having a KD ratio of 0.1 or more and less than 3 is denoted as C)

Structure (SMILES): CCCO[C@H](C)[C@@H]1NC(=O)[C@H](COCC)N(C)C(=O)C[C@@H](C(=O)N(C)CC)N(C)C(=O)[C@H](C2CCCC2)N(C)C(=O)C2(CC(C)(C)C2)NC(=O)[C@@H]2C[C@H](C)CN2C(=O)[C@H](CCc2ccc(C(F)(F)F)c(OC)c2)NC(=O)CN(C)C(=O)[C@H](Cc2ccc(C)cc2)N2CC/C=C\C[C@@H](C2=O)N(C)C(=O)CN(C)C1=O [PP2425]
- NRAS/KRAS (ratio of KD value with respect to NRAS to KD value with respect to KRAS) ([1]; SPR): AA (a compound having 20 or more is denoted as AA)
- HRAS/KRAS (ratio of KD value with respect to HRAS to KD value with respect to KRAS) ([2]; SPR): A (a compound having 10 or more and less than 20 is denoted as A)

Structure (SMILES): CCCN1C(=O)CN(CC)C(=O)CN(C)C(=O)[C@H]([C@@H](C)CC)NC(=O)[C@H](CC(C)C)N(C)C(=O)C[C@@H](C(=O)N2CCOCC2)N(C)C(=O)[C@H](C2CCCC2)N(C)C(=O)C2(CCC2)NC(=O)[C@@H]2CCCN2C(=O)[C@H](CCc2ccc(C(F)(F)F)c(Cl)c2)NC(=O)CN(C)C(=O)[C@@H]1Cc1ccc(C(F)(F)F)cc1 [PP1948] ([NMeL]I[Sar][NEtG][NPrPhe(4-CF3)][Sar][hPhe(3-Cl-4-CF3)]P[Ac4c][NMeGly(cPent)][NMeD]-Morpholide; lactam N-11)
- NRAS/KRAS (ratio of KD value for NRAS to KD value for KRAS) ([1]; SPR): C (A compound having a KD ratio of 0.1 or more and less than 3 is denoted as C)
- HRAS/KRAS (ratio of KD value for HRAS to KD value for KRAS) ([2]; SPR): C (A compound having a KD ratio of 0.1 or more and less than 3 is denoted as C)
